According to patent US9260408B2, “Dihydroquinoline-2-one derivatives” (Hoffmann-La Roche Inc., priority 2011, dated 2016):
Where a name gives a salt, the structure may show the parent alone.

What was measured:
human CYP11B1 = target: T1, human CYP11B1 (Homo sapiens, UniProt P15538); test: G-402 cellular enzyme assay, human CYP11B1 (cortisol release, HTRF); assay type: cell-based; conditions: G-402 cells expressing human CYP11B1; 1 μM Deoxycortisol
T1 construct: expressed in transfected cells
T1 sequence (P15538 25-503): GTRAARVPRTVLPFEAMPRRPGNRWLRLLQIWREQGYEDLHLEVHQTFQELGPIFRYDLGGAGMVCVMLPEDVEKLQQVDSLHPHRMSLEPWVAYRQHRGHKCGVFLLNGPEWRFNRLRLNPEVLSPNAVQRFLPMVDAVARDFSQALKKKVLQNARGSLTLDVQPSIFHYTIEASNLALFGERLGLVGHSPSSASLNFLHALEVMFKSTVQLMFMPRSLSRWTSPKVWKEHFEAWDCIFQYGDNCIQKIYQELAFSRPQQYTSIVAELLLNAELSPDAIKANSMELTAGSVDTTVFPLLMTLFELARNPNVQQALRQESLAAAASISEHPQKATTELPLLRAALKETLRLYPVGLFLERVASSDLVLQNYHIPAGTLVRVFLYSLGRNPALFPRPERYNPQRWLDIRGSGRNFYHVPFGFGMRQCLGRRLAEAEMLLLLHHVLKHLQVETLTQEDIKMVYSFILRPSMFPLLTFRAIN
Summary of the method: (§1)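 G-402 cells stably expressing human CYP11B2 or CYP11B1, in DMEM/F12 with 2.5% charcoal-treated FCS, were incubated 16 h with compound plus 1 μM deoxycorticosterone (CYP11B2) or 1 μM deoxycortisol (CYP11B1). Aldosterone or cortisol in the supernatant measured by HTRF; EC50 from a 4-parameter MMF fit.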

human CYP11B2 = target: T2, human CYP11B2 (Homo sapiens, UniProt P19099); test: G-402 cellular enzyme assay, human CYP11B2 (aldosterone release, HTRF); assay type: cell-based; conditions: G-402 cells expressing human CYP11B2; 1 μM Deoxycorticosterone
T2 construct: expressed in transfected cells
T2 sequence (P19099 25-503): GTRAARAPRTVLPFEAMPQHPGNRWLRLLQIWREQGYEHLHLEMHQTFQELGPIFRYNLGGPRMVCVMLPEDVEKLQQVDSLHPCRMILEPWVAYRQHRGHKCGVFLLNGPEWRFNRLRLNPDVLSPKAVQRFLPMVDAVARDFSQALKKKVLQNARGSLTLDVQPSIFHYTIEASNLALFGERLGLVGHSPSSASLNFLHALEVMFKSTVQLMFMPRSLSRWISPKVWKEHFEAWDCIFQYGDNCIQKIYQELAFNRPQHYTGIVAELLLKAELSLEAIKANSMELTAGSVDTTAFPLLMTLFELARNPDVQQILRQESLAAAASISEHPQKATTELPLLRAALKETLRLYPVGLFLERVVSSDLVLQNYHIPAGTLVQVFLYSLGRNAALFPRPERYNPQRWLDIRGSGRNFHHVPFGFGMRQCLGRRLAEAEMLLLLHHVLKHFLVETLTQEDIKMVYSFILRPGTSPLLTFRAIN
Summary of the method: as §1

EC50 (human CYP11B1) [nM]	EC50 (human CYP11B2) [nM]	SMILES
493	43	Cc1nnc(C(=O)NCc2cncc(-c3ccc4c(c3)CCC(=O)N4C)c2)o1 [Example 80]
20	8	COc1ncc(C(=O)NCc2cncc(-c3ccc4c(c3)CCC(=O)N4C)c2)cn1 [Example 82]
46	9	CN1C(=O)CCc2cc(-c3cncc(CNC(=O)c4nccn4C)c3)ccc21 [Example 83]
526	34	CN1C(=O)CCc2cc(-c3cncc(CNC(=O)c4coc(C(F)(F)F)c4)c3)ccc21 [Example 84]
48	3	CN1C(=O)CCc2cc(-c3cncc(CNC(=O)c4cccnn4)c3)ccc21 [Example 85]
108	4	CN1C(=O)CCc2cc(-c3cncc(CNC(=O)c4cncnc4)c3)ccc21 [Example 86]
1070	17	CN1C(=O)CCc2cc(-c3cncc(CNC(=O)c4cnn(C)c4)c3)ccc21 [Example 87, 1-Methyl-1H-pyrazole-4-carboxylic acid [5-(1-methyl-2-oxo-1,2,3,4-tetrahydro-quinolin-6-yl)-pyridin-3-ylmethyl]-amide]
276	14	CN1C(=O)CCc2cc(-c3cncc(CNC(=O)c4ccnnc4)c3)ccc21 [Example 89]
632	16	Cc1nocc1C(=O)NCc1cncc(-c2ccc3c(c2)CCC(=O)N3C)c1 [Example 92]
111	6	CN1C(=O)CCc2cc(-c3cncc(CNC(=O)c4ccccn4)c3)ccc21 [Example 97]
360	11	Cc1nn(C)cc1C(=O)NCc1cncc(-c2ccc3c(c2)CCC(=O)N3C)c1 [Example 98]
1120	35	CN1C(=O)CCc2cc(-c3cncc(CNC(=O)c4ncccn4)c3)ccc21 [Example 99]
179	2	Cc1oncc1C(=O)NCc1cncc(-c2ccc3c(c2)CCC(=O)N3C)c1 [Example 101]
2930	15	CN1C(=O)CCc2cc(-c3cncc(OCCNC(=O)c4cnn(C)c4)c3)ccc21 [Example 103]
94	10	CN1C(=O)CCc2cc(-c3cncc(CNC(=O)c4ccc(Cl)nn4)c3)ccc21 [Example 104]
44	2	CN1C(=O)CCc2cc(-c3cncc(CNC(=O)c4cnoc4C4CC4)c3)ccc21 [Example 107]
712	78	Cc1nc(C(=O)NCc2cncc(-c3ccc4c(c3)CCC(=O)N4C)c2)co1 [Example 109]
151	6	Cc1ocnc1C(=O)NCc1cncc(-c2ccc3c(c2)CCC(=O)N3C)c1 [Example 112]
142	8	CN1C(=O)CCc2cc(-c3cncc(CNC(=O)c4cccc(Cl)n4)c3)ccc21 [Example 114]

More lines, now with the values behind:

SMILES	EC50 (human CYP11B1) [nM]	EC50 (human CYP11B2) [nM]
CN1C(=O)CCc2cc(-c3cncc(O[C@@H]4CCNC4)c3)c(F)cc21 [Example 67, 7-Fluoro-1-methyl-6-[5-((R)-pyrrolidin-3-yloxy)-pyridin-3-yl]-3,4-dihydro-1H-quinolin-2-one hydrochloride]	7670	160
CN1C(=O)CCc2cc(-c3cncc(O[C@@H]4CCNC4)c3)ccc21 [Example 68, 1-Methyl-6-[5-((R)-pyrrolidin-3-yloxy)-pyridin-3-yl]-3,4-dihydro-1H-quinolin-2-one hydrochloride]	33700	350
CN1C(=O)CCc2cc(-c3cncc(C4(N)COC4)c3)ccc21 [Example 69, 6-[5-(3-Amino-oxetan-3-yl)-pyridin-3-yl]-1-methyl-3,4-dihydro-1H-quinolin-2-one hydrochloride]	3490	411
CN1C(=O)CCc2cc(-c3cncc(OC4CNC4)c3)ccc21 [Example 70, 6-[5-(Azetidin-3-yloxy)-pyridin-3-yl]-1-methyl-3,4-dihydro-1H-quinolin-2-one hydrochloride]	15600	202
CN1C(=O)CCc2cc(-c3cncc(O[C@H]4CC[C@H](N)CC4)c3)ccc21 [Example 71, 6-[5-((trans)-4-amino-cyclohexyloxy)-pyridin-3-yl]-1-methyl-3,4-dihydro-1H-quinolin-2-one hydrochloride]	2500	81
CN1C(=O)CCc2cc(-c3cncc(C(C)(C)N)c3)ccc21 [Example 72, 6-[5-(1-Amino-1-methyl-ethyl)-pyridin-3-yl]-1-methyl-3,4-dihydro-1H-quinolin-2-one]	101	7
CN1C(=O)CCc2cc(-c3cncc(CN)c3)c(F)cc21 [Example 73, 6-(5-Aminomethyl-pyridin-3-yl)-7-fluoro-1-methyl-3,4-dihydro-1H-quinolin-2-one]	575	17
Cc1noc(C)c1C(=O)NCc1cncc(-c2ccc3c(c2)CCC(=O)N3C)c1 [Example 75, 3,5-Dimethyl-isoxazole-4-carboxylic acid [5-(1-methyl-2-oxo-1,2,3,4-tetrahydro-quinolin-6-yl)-pyridin-3-ylmethyl]-amide]	509	8
CN1C(=O)CCc2cc(-c3cncc(O[C@H]4CCN(C(=O)C5CC5)C4)c3)ccc21 [Example 76, 6-[5-((S)-1-Cyclopropanecarbonyl-pyrrolidin-3-yloxy)-pyridin-3-yl]-1-methyl-3,4-dihydro-1H-quinolin-2-one]	452	23
CC(C)CC(=O)NCc1cncc(-c2ccc3c(c2)CCC(=O)N3C)c1 [Example 77]	223	42
CN1C(=O)CCc2cc(-c3cncc(CNC(=O)CC(F)(F)F)c3)ccc21 [Example 78]	1140	121
CN1C(=O)CCc2cc(-c3cncc(CNC(=O)C(C)(C)O)c3)ccc21 [Example 79]	302	35
CCC(=O)N1CCC[C@H](Oc2cncc(-c3ccc4c(c3)CCC(=O)N4C)c2)C1 [Example 81]	4640	172
CCC(=O)N1CCC(Oc2cncc(-c3ccc4c(c3)CCC(=O)N4C)c2)CC1 [Example 88]	13	1
CCC(=O)N1CC[C@H](Oc2cncc(-c3ccc4c(c3)CCC(=O)N4C)c2)C1 [Example 90]	1500	11
CN1C(=O)CCc2cc(-c3cncc(OC[C@@H]4CCN4C(=O)C4CC4)c3)ccc21 [Example 91]	3070	43
Cc1cc(F)cc(C)c1C(=O)NCc1cncc(-c2ccc3c(c2)CCC(=O)N3C)c1 [Example 93]	613	23
CCC(=O)N1CC[C@H]1COc1cncc(-c2ccc3c(c2)CCC(=O)N3C)c1 [Example 94]	1340	23
CN1C(=O)CCc2cc(-c3cncc(CNC(=O)c4cc(Cl)nnc4Cl)c3)ccc21 [Example 95]	1780	17
CN1C(=O)CCc2cc(-c3cncc(CNC(=O)c4cn(CC(F)(F)F)nc4C4CC4)c3)ccc21 [Example 96]	1680	22
COc1ccc(C(=O)NCc2cncc(-c3ccc4c(c3)CCC(=O)N4C)c2)nn1 [Example 100]	140	7
Cc1noc(C)c1C(=O)NCCOc1cncc(-c2ccc3c(c2)CCC(=O)N3C)c1 [Example 102]	1440	14
Cc1cc(C(=O)NCc2cncc(-c3ccc4c(c3)CCC(=O)N4C)c2)c(Cl)nn1 [Example 105]	2580	86
CCC(=O)N1CCC[C@H]1COc1cncc(-c2ccc3c(c2)CCC(=O)N3C)c1 [Example 106]	2680	20
Cc1nc(C(=O)NCc2cncc(-c3ccc4c(c3)CCC(=O)N4C)c2)c(C(F)(F)F)o1 [Example 108]	1110	32
CN1C(=O)CCc2cc(-c3cncc(CNC(=O)c4ncoc4C4CC4)c3)ccc21 [Example 110]	187	6
Cc1nc(C(=O)NCc2cncc(-c3ccc4c(c3)CCC(=O)N4C)c2)c(C)o1 [Example 111]	81	4
Cc1noc(C)c1C(=O)NC1(c2cncc(-c3ccc4c(c3)CCC(=O)N4C)c2)CC1 [Example 113]	1570	75
